How the values were obtained:
Assay type in all cases: binding
[1] = molecular target: Recombinant human integrin α5β1 (Homo sapiens (Human), UniProt P05556+P08648); assay: Solid Phase Receptor Assay (SPRA) for α5β1 function; settings: fibronectin-coated plate
Experimental: 1. Solid Phase Receptor Assay (SPRA) for α5β1 Function
Purified human fibronectin (R&D Systems, 1918-FN) diluted to 2 μg/mL in TBS+ buffer (25 mM Tris pH 7.4, 137 mM NaCl, 2.7 mM KCl, 1 mM CaCl2, 1 mM MgCl2, 1 mM MnCl2) was added to wells (50 μL/well) of a 96-well half-well transparent microtiter plate (Greiner 675061) and incubated overnight at 4° C. Wells were washed 3 times with 150 μL TBS+ and 150 μL of blocking buffer (TBS+ with 1% bovine serum albumin, Sigma A7906) were added. The plate was incubated for 1 hr at 37° C. and then washed 3× with TBS+ buffer. Recombinant human integrin α5β1 (R&D Systems, 3230-A5) was diluted to 0.1 μg/mL in TBS+/0.1% bovine serum albumin. Compounds were diluted 1:100 into the integrin solution and then 50 μL added to empty wells of the washed fibronectin-coated plate according to a standard template with each sample repeated in triplicate. After incubation for two hours at room temperature, the plate was washed 3× with 150 μL of TBS+ buffer. To each well, 50 μl of biotinylated anti-α5 antibody (R&D Systems, BAF1864) at 0.5 μg/mL in TBS+/0.1% BSA were added and the plate covered and incubated for 1 hr at room temperature. After washing the plate 3× with 150 μL of TBS+ buffer, 50 μL of streptavidin-conjugated horseradish peroxidase (R&D Systems, DY998) diluted in TBS+ blocking buffer were added to the wells and the plate incubated for 20 min at room temperature. The plate was washed 3× with TBS+ buffer followed by 50 μL of room temperature TMB substrate (Sigma, T444) added to each well and the plate incubated for 20 min at room temperature. Plates were read by colorimetric detection at 650 nm wavelength using a Tecan Safire II plate reader. Concentration-response curves were constructed by non-linear regression (best fit) analysis, and IC50 values were calculated for each compound.

[2] = molecular target: Recombinant human integrin αvβ3 (Homo sapiens (Human), UniProt P05106+P06756); assay: Solid Phase Receptor Assay (SPRA) for αvβ3 function; settings: vitronectin-coated plate
Recombinant human integrin αvβ3, sequence (P06756 31-992): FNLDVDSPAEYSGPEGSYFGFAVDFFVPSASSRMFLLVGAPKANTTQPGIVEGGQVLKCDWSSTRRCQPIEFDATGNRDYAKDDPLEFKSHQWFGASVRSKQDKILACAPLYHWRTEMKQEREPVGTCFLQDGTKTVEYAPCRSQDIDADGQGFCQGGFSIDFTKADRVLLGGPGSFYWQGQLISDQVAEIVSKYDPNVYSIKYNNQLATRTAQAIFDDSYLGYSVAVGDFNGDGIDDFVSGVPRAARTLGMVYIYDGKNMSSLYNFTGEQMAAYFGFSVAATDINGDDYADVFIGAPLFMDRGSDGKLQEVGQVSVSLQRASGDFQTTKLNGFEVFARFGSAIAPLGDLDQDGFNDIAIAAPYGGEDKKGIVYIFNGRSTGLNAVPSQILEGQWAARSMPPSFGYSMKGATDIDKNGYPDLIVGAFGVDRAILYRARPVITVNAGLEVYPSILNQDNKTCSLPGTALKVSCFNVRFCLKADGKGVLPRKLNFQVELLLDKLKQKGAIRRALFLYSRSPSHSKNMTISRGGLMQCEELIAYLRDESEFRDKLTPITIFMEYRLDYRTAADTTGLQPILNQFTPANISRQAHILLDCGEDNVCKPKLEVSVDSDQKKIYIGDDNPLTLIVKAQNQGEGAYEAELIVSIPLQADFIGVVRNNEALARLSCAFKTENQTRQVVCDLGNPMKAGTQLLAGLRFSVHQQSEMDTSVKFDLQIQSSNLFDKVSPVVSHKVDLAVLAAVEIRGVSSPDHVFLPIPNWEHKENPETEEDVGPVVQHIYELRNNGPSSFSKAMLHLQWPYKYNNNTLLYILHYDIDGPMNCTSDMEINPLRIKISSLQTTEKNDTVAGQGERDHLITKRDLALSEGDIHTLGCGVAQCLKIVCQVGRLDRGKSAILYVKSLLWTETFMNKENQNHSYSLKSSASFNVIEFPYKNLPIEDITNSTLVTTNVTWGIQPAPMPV
Recombinant human integrin αvβ3, sequence (P05106 27-718): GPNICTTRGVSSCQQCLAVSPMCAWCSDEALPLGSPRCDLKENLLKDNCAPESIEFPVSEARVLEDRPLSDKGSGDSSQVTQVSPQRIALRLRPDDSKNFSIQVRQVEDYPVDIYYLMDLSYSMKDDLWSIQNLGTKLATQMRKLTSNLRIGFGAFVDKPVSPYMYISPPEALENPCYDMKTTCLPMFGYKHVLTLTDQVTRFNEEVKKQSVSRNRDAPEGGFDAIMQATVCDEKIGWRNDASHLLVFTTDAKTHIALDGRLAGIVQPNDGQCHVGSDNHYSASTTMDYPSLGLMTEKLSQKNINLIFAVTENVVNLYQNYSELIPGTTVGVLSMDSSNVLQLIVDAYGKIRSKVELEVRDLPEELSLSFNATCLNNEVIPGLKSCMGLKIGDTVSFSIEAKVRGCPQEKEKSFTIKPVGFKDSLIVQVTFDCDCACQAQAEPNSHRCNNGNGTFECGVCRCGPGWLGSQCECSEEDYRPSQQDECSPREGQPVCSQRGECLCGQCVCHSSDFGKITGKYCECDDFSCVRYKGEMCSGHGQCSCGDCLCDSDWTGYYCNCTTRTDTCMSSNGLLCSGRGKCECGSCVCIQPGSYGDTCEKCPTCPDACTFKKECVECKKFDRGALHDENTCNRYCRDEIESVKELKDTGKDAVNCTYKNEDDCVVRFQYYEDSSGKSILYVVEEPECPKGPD
Experimental: 3. Solid Phase Receptor Assay (SPRA) for αvβ3 Function
Recombinant human vitronectin (R& D Systems, 2308-VN) diluted to 1 μg/mL in TBS+ buffer (25 mM Tris pH 7.4, 137 mM NaCl, 2.7 mM KCl, 1 mM CaCl2, 1 mM MgCl2, 1 mM MnCl2) was added to wells (50 μL/well) of a 96-well half-well transparent microtiter plate (Greiner 675061) and incubated overnight at 4° C. Wells were washed 3 times with 150 μL TBS+ and 150 μL of blocking buffer (TBS+ with 1% bovine serum albumin, Sigma A7906) were added. The plate was incubated for 1 hr at 37° C. and then washed 3× with TBS+ buffer. Recombinant human integrin αvβ3 (R&D Systems, 3050-AV) was diluted to 1 μg/mL in TBS+/0.1% bovine serum albumin. Compounds were diluted 1:100 into the integrin solution and then 50 μL added to empty wells of the washed vitronectin-coated plate according to a standard template with each sample repeated in triplicate. After incubation for two hours at room temperature, the plate was washed 3× with 150 μL of TBS+ buffer. To each well, 50 μL of biotinylated anti-αv antibody (R&D Systems, BAF1219) at 0.5 μg/mL in TBS+/0.1% BSA were added and the plate covered and incubated for 1 hr at room temperature. After washing the plate 3× with 150 μL of TBS+ buffer, 50 μL of streptavidin-conjugated horseradish peroxidase (R&D Systems, DY998) diluted in TBS+ blocking buffer were added to the wells and the plate incubated for 20 min at room temperature. The plate was washed 3× with TBS+ buffer followed by 50 μL of TMB substrate (Sigma, T4444) added to each well and the plate was incubated for 20 min at room temperature. Plates were read by colorimetric detection at 650 nm wavelength using a Tecan Safire II plate reader. Concentration-response curves were constructed by non-linear regression (best fit) analysis, and IC50 values were calculated for each compound.

[3] = molecular target: Recombinant human integrin αvβ6 (Homo sapiens (Human), UniProt P06756+P18564); assay: Solid Phase Receptor Assay (SPRA) for αvβ6 function; settings: LAP-coated plate
Recombinant human integrin αvβ6, sequence (P06756 31-992): as the sequence (P06756 31-992) above
Recombinant human integrin αvβ6, sequence (P18564 22-707): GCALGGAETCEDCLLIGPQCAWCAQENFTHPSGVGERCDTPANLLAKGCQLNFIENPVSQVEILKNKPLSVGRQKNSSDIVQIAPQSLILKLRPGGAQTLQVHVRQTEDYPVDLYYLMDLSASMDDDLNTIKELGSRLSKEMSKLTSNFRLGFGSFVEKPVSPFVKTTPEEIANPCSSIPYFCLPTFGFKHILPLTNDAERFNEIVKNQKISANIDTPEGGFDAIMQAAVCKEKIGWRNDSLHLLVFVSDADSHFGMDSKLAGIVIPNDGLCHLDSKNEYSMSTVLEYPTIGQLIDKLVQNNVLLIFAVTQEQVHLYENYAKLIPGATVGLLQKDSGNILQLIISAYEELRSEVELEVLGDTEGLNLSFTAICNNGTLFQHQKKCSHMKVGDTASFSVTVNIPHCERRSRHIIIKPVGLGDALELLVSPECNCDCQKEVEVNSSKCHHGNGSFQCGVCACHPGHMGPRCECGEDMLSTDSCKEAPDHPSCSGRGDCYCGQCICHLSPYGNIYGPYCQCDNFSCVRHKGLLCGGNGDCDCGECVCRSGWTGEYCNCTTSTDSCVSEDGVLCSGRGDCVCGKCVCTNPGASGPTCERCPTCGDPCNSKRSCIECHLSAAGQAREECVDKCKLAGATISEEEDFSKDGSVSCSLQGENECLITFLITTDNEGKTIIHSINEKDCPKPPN
Experimental: 5. Solid Phase Receptor Assay (SPRA) for αvβ6 Function
Recombinant human LAP (R&D Systems, 246-LP) diluted to 0.25 μg/mL in TBS+ buffer (25 mM Tris pH 7.4, 137 mM NaCl, 2.7 mM KCl, 1 mM CaCl2, 1 mM MgCl2, 1 mM MnCl2) was added to wells (50 μL/well) of a 96-well half-well transparent microtiter plate (Greiner 675061) and incubated overnight at 4° C. Wells were washed 3 times with 150 μL TBS+, and 150 μL of blocking buffer (TBS+ with 1% bovine serum albumin, Sigma A7906) were added. The plate was incubated for 1 hr at 37° C., and then washed 3× with TBS+ buffer. Recombinant human integrin αvβ6 (R&D Systems, 3817-AV) was diluted to 0.1 μg/mL in TBS+/0.1% bovine serum albumin. Compounds were diluted 1:100 into the integrin solution and then 50 μL added to empty wells of the washed LAP-coated plate according to a standard template with each sample repeated in triplicate. After incubation for two hours at room temperature, the plate was washed 3× with 150 μL of TBS+ buffer. To each well, 50 μL of biotinylated anti-αv antibody (R&D Systems, BAF1219) at 0.5 μg/mL in TBS+/0.1% BSA were added and the plate was covered and incubated for 1 hr at room temperature. After washing the plate 3× with 150 μL of TBS+ buffer, 50 μL of streptavidin-conjugated horseradish peroxidase (R&D Systems, DY998) diluted in TBS+ blocking buffer were added to the wells and the plate incubated for 20 min at room temperature. The plate was washed 3× with TBS+ buffer followed by 50 μL of TMB substrate (Sigma T4444) added to each well and the plate incubated for 20 min at room temperature. Plates were read by colorimetric detection at 650 nm wavelength using a Tecan Safire II plate reader. Concentration-response curves were constructed by non-linear regression (best fit) analysis, and IC50 values were calculated for each compound.

Recombinant human integrin α5β1, sequence (P08648 42-995): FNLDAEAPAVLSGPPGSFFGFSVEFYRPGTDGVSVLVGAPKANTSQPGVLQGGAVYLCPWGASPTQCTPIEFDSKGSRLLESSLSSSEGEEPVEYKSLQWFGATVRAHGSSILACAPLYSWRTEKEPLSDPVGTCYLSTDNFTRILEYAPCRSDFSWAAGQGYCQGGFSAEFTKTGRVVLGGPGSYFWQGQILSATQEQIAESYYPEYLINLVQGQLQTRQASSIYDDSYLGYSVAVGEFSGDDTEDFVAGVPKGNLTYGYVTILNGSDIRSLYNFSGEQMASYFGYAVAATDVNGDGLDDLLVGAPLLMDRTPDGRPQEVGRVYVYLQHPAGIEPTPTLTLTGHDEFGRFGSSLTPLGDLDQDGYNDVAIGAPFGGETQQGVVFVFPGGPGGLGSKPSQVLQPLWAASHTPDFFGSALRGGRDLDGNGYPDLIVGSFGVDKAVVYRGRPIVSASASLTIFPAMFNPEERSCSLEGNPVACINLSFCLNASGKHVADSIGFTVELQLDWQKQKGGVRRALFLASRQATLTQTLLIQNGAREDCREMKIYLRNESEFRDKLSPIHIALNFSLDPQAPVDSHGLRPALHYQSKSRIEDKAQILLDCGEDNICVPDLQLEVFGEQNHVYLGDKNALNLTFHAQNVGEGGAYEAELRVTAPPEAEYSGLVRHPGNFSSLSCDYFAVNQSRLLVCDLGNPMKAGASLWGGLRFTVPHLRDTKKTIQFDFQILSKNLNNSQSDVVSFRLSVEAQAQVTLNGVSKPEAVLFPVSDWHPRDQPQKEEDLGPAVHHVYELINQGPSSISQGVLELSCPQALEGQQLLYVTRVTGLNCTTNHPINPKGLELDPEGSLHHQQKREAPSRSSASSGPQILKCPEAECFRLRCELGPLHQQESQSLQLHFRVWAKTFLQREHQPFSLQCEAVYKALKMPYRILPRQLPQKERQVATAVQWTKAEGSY
Recombinant human integrin α5β1, sequence (P05556 21-728): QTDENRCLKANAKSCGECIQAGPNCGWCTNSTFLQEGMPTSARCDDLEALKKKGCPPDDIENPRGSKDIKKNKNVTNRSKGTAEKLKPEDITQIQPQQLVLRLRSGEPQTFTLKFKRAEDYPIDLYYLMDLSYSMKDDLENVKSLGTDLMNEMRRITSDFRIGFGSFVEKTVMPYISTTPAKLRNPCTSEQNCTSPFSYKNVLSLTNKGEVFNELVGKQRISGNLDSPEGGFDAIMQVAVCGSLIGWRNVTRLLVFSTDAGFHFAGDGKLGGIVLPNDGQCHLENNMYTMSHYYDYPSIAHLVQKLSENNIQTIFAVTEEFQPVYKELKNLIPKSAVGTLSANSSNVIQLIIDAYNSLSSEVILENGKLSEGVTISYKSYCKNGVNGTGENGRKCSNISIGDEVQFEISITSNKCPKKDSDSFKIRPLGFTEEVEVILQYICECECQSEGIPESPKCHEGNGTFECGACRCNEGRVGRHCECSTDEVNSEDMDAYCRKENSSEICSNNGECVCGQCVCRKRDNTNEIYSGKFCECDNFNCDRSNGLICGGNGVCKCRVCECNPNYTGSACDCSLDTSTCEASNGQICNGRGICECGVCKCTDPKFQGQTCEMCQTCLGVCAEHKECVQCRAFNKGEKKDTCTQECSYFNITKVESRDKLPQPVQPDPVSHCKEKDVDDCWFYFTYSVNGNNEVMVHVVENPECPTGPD

IC50 [1] [nM] | IC50 [2] [nM] | IC50 [3] [nM] | Compound
0.5 | 2 | 0.5 | Cc1cc(Br)cc([C@H](CC(=O)O)NC(=O)CNC(=O)c2cc(O)cc(NC3=NCC(O)CN3)c2)c1 (stereo partly drawn) [Example 11, (3S)-3-[3-bromo-5-methyl-phenyl)-3-(2-(3-hydroxy-5-((5-hydroxy-1,4,5,6-tetrahydropyrimidin-2-yl)amino)benzamido)acetamido)propanoic acid]
2 | 4 | 0.6 | Cc1cc(Cl)cc([C@H](CC(=O)O)NC(=O)CNC(=O)c2cc(O)cc(NC3=NCC(O)CN3)c2)c1 (stereo partly drawn) [Example 12, (3S)-3-[3-chloro-5-methyl-phenyl)-3-(2-(3-hydroxy-5-((5-hydroxy-1,4,5,6-tetrahydropyrimidin-2-yl)amino)benzamido)acetamido)propanoic acid]
0.6 | 0.3 | 0.2 | O=C(O)C[C@H](NC(=O)CNC(=O)c1cncc(NC2=NCC(O)CN2)c1)c1cc(Br)cc(Br)c1 (stereo partly drawn) [Example 14, (3S)-3-(3,5-dibromophenyl)-3-[[2-[[5-[(5-hydroxy-1,4,5,6-tetrahydropyrimidin-2-yl)amino]pyridine-3-carbonyl]amino]acetyl]amino]propanoic acid]
1 ± 0.3 | 4 | 0.6 | O=C(O)C[C@H](NC(=O)CNC(=O)c1cc(O)cc(NC2=NCC(O)CN2)c1)c1cc(Cl)cc(Cl)c1 (stereo partly drawn) [Example 15, (3S)-3-[3,5-dichloro-phenyl)-3-(2-(3-hydroxy-5-((5-hydroxy-1,4,5,6-tetrahydropyrimidin-2-yl)amino)benzamido)acetamido)propanoic acid]
1 ± 0.4 | 3 ± 0.3 | 0.5 | O=C(O)C[C@H](NC(=O)CNC(=O)c1cc(O)cc(NC2=NCC(O)CN2)c1)c1cc(Cl)cc(OC(F)(F)F)c1 (stereo partly drawn) [Example 16, (3S)-3-[3-chloro-5-(trifluoromethoxy)phenyl)-3-(2-(3-hydroxy-5-((5-hydroxy-1,4,5,6-tetrahydropyrimidin-2-yl)amino)benzamido)acetamido)propanoic acid]
1 ± 0.1 | 2.8 ± 1.1 | 0.7 | O=C(O)C[C@H](NC(=O)CNC(=O)c1cc(O)cc(NC2=NCC(O)CN2)c1)c1cc(Br)cc(OC(F)(F)F)c1 (stereo partly drawn) [Example 17, (3S)-3-(3-bromo-5-(trifluoromethoxy)phenyl)-3-(2-(3-hydroxy-5-((5-hydroxy-1,4,5,6-tetrahydropyrimidin-2-yl)amino)benzamido)acetamido)propanoic acid]
16 ± 9 | 5 ± 2 | 2 ± 1 | O=C(O)C[C@H](NC(=O)CNC(=O)c1cc(O)cc(NC2=NCC(O)CN2)c1)c1cc(Cl)cc(Br)c1O (stereo partly drawn) [Example C1, reference compound]
8 | 3 | > 1000 | O=C(O)C[C@H](NC(=O)CNC(=O)c1cc(O)cc(NC2=NCC(O)CN2)c1)c1ccccc1 (stereo partly drawn) [Example C2, reference compound]
40 | 2 | 1 | O=C(O)CC(NC(=O)CNC(=O)c1cc(O)cc(NC2=NCC(O)CN2)c1)c1cc(Cl)cc(Cl)c1O (stereo not drawn) [Example C3, reference compound]
7 | 4 | 2 | Cc1cc(C)cc(C(CC(=O)O)NC(=O)CNC(=O)c2cccc(NC(=N)N)c2)c1 (stereo not drawn) [Example C4, reference compound]
24 | 4 | 17 ± 2 | N=C(N)Nc1cccc(C(=O)NCC(=O)NC(CC(=O)O)c2ccccc2)c1 (stereo not drawn) [Example C5, reference compound]
7 ± 4 | 6 | 1 | Cc1ccc(O)c(C(CC(=O)O)NC(=O)CNC(=O)c2cc(O)cc(NC3=NCC(O)CN3)c2)c1 (stereo not drawn) [Example C6, reference compound]
59 | 11 | 12 | O=C(O)CC(NC(=O)CNC(=O)c1cc(O)cc(NC2=NCC(O)CN2)c1)c1cc(Br)cc(Br)c1O (stereo not drawn) [Example C7, reference compound]
38 | 5 | 2 | Cc1ccc(O)c(C(CC(=O)O)NC(=O)CNC(=O)c2cccc(NC(=N)N)c2)c1 (stereo not drawn) [Example C8, reference compound]
8 ± 3 | 4 ± 1 | 1 | N=C(N)Nc1cccc(C(=O)NCC(=O)NC(CC(=O)O)c2cc(F)cc(C(F)(F)F)c2)c1 (stereo not drawn) [Example C9, reference compound]
18 | 6 | 3 | Cc1cc(Cl)cc([C@@H](CC(=O)O)NC(=O)CNC(=O)c2cc(O)cc(NC3=NCC(O)CN3)c2)c1O (stereo partly drawn) [Example C10, reference compound]

Compound | IC50 [1] [nM] | IC50 [2] [nM] | IC50 [3] [nM]
O=C(O)C[C@H](NC(=O)CNC(=O)c1cc(O)cc(NC2=NCC(O)CN2)c1)c1cc(F)cc(Br)c1 (stereo partly drawn) [Example 13, (3S)-3-[3-bromo-5-fluoro-phenyl)-3-(2-(3-hydroxy-5-((5-hydroxy-1,4,5,6-tetrahydropyrimidin-2-yl)amino)benzamido)acetamido)propanoic acid] | 0.6 | 1.7 | 0.4
Cc1cc(Cl)cc([C@@H](CC(=O)O)NC(=O)CNC(=O)c2cccc(NC3=NCCN3)c2)c1O [Example C11, reference compound] | 33 | 9 | 4
